# From patent publication US11730810B2, “Composition comprising an antigen and a substituted imidazo[1,2-a]pyrimidine for enhancing human immune response” (Children's Medical Center Corporation, priority 2017, dated 2023)
# Experiments:
# [1] = test system: Human adult and elderly PBMCs; assay: Stimulation of adult and elderly PBMCs, TNF and IL-1β by ELISA; type: cell-based
# Description: (FIG. 2A) Human adult (top) and elderly (bottom) PBMCs stimulated for 18 hours with the TLR7/8 agonist R848 and 24 confirmed hit compounds from TNF AlphaLISA screen. TNF (left panels) and IL-1β (right panels) were assessed in cell-free supernatants by ELISA. Data are shown as median and interquartile range of N=5.
# (§1) ELISAs and Multiplex-Analyte Assays. Supernatants derived from human PBMCs and DC stimulations were assayed by ELISA for TNF (ThermoFisher Scientific; Waltham, Mass., USA). Cytokine and chemokine expression profiles (e.g., IFNγ, IL-10, IL-12 (p70), IL-1β, IL-6, IL-8, MIP-1α/CCL3, TNF and GM-CSF) in cell culture supernatants were measured using a customized 9-plex Milliplex® Human Th17 Magnetic Bead Panel according to the manufacturer's instructions (Millipore, Chicago, Ill., USA). Assays were read and analyzed on the Luminex® 100/200™ System and xPOTENT® software (Luminex, Austin, Tex.). A minimum threshold was set at the minimum detectable concentration for each individual assay, defined as three standard deviations above the mean background.
# In vitro PBMC stimulation. PBMCs were isolated from blood using a Ficoll density gradient. PBMCs either used fresh or stored at 5×10^7 cells per vial in 1 mL RPMI containing 20% autologous plasma and 10% DMSO at −80° C. until use. […]
# human adult PBMCs [2] = assay: 9-plex multiplex cytokine assay after stimulation of adult PBMCs; type: cell-based; details: 0.1 μM-33 μM, 18 hours, 10% autologous plasma, N=4; compared with R848
# Description: Shown is a 9-plex multiplex cytokine assay after stimulation of adult peripheral blood mononuclear cells (PBMCs) with compound 037 or R848 at four different concentrations (0.1 μM-33 μM). Radar plots of immune polarizing cytokine production from human adult PBMCs stimulated for 18 hours in 10% autologous plasma, represented as fold-change over RPMI unstimulated control (N=4).
# as §1
# THP1-Lucia cells = assay: NF-kB-induced Luminescence Assay in THP1-Lucia cells; type: cell-based, human; details: in comparison to positive control R848, N=4
# Description: (FIG. 5A) Human adult PBMCs were stimulated for 18 hours with the positive control compound R848 or compound 037 and its analogs at 33 μM. Production human TNF was measured in cell-free supernatants by ELISA (N=5). […] Results are shown as the median, the 25th and 75th percentiles (boxes) and the 5th and 95th percentiles (whiskers). **p<0.01 determined by repeated measure one-way ANOVA with Dunnett's multiple comparison test on log-transformed data and comparing each compound with DMSO (control condition).
# THP-1 Cell Line and Culture Conditions. The THP1-Lucia™ cell line was obtained from Invivogen (San Diego, Calif.). THP1-Lucia cells, which are human monocytic cells derived from the blood of a child with leukemia, contain an NF-kB-inducible Luc reporter construct. This allows NF-kB activation to be measured by quantifying the luminescence from the secreted luciferase enzyme. THP1-Lucia cells were cultured in RPMI 1640 supplemented with 10% non-heat inactivated fetal bovine serum (FBS), 10 mM HEPES, 1.0 mM sodium pyruvate, 50 ug/ml Pen-Strep, and 100 ug/mL Normocin™. Once cultured, the cells were stored in a 37° C. incubator with 5% CO2 and a humidified atmosphere. […]
# NF-kB-induced Luminescence Assay. […] Immediately after adding the substrate, the luminescence was read using a PerkinElmer Envision plate reader.
# [3] = test system: primary human blood mononuclear cells (PBMC); assay: TNF AlphaLISA screen on primary human PBMCs; type: cell-based; details: hit = robust Z score >2 in both duplicates and in at least 2 of 3 donors
# Description: To identify immunomodulators/adjuvants that robustly activate human immune cells, ˜200,000 small molecules were tested against THP1 NF-κB reporter cells in a screen. As there is evidence that cell culture lines such as THP-1 cells may not model responses of natural primary human leukocytes, smaller-scale novel high throughput screening methodology was also employed, in which 9,000 commercially available compounds (focusing on small molecule library plates that had relatively high # of hits form the THP-1 screen) were screened using primary human blood mononuclear cells (PBMC) from three different adult human donors (TNFαLISA Assay) (FIGS. 1A-1C).
# TNF AlphaLISA screen was comprised of three parts: 1) human peripheral blood collection and PBMC isolation—human adult peripheral blood was collected with written consent. PBMCs were isolated from the blood using Ficoll density gradient. […]
# Based on antibody-coated fluorometric excitation/emission beads, the Alpha technology (PerkinElmer) enables the detection and screening of target molecules, in this case TNFα, in a no-wash, highly sensitive, quantitative assay compatible with high throughput screening.
# TNFαLISA Assay. […] Viability was assessed by trypan blue staining and cells were then resuspended to 6.67×10^5 viable cells/mL in DMEM with 10% autologous plasma. […]
# mouse splenocytes = assay: Splenocyte in vitro stimulation, murine IL-6 by ELISA; type: cell-based, C57BL/6 mice; details: 33 μM, 18 hours
# human adult PBMCs [4] = assay: In vitro PBMC stimulation, TNF production by ELISA (Table 1); type: cell-based; details: 18 hours
# Description: (§2) Human adult PBMCs were stimulated for 18 hours with compound 037 and its analogs at 33 μM. Production of human TNF was assessed in cell-free supernatants by ELISA. Results are shown as the median, the 25th and 75th percentiles (boxes) and the 5th and 95th percentiles (whiskers) and expressed as percentage TNF production (TNF %) as compared to R848 (FIG. 6A) or TNF concentration in ng/ml (FIG. 6B) (N=3-5). **p<0.01 determined by repeated measure one-way ANOVA with Dunnett's multiple comparison test on log-transformed data and comparing each compound with DMSO (control condition).
# as §2, with “7A)” for “6A)”, “7B) (N=5). Analogs are ranked left to right by TNF % (compound 037 on the far left). Compound 037 analogs have been classified in the following categories according to TNF %: high activity—class A: TNF %>15%; medium activity—class B: 1%<TNF %≤15%; low activity—class C: TNF %≤1%.” for “6B) (N=3-5).”
# Table 1 provides the activity of exemplary compounds on stimulating TNF production in PBMCs as compared to the benchmark compound R848. Specifically, TNF production was measured by ELISA after stimulation of adult PBMCs with compound 037 analog family or the compound R848 at 33 μM for 18 hours. […]
# ELISAs and Multiplex-Analyte Assays. […] Cytokine and chemokine expression profiles (e.g., IFNγ, IL-10, IL-12 (p70), IL-1β, IL-6, IL-8, MIP-1α/CCL3, TNF and GM-CSF) in cell culture supernatants were measured using a customized 9-plex Milliplex® Human Th17 Magnetic Bead Panel according to the manufacturer's instructions (Millipore, Chicago, Ill., USA). […]
smiles,measurement,setting,value
CCC(C(=O)Nc1cc(-c2cn3cccnc3n2)ccc1C)c1ccccc1 (stereo not drawn) [Compound 37],induction of TNF and IL-1β,"[1]; adult and elderly PBMCs stimulated for 18 hours, N=5",induce TNF and IL-1β
same,potency rank as inducer of innate immune cytokines among 24 confirmed hits,"[1]; adult and elderly PBMCs, 18 hours",most potent inducers of innate immune cytokines
same,"cytokine response (9-plex), fold-change over RPMI unstimulated control",human adult PBMCs [2],broad concentration-dependent cytokine response
same,NF-κB-driven expression of luciferase,THP1-Lucia cells,little activity
same,hit in PBMC TNFαLISA screen,[3],identified
"Cc1cnc2nc(-c3ccc(C)c(NC(=O)c4ccccc4C(F)(F)F)c3)cn2c1 [FRF-02-144-3, N-(2-Methyl-5-(6-methylimidazo[1,2-a]pyrimidin-2-yl)phenyl)-2-(trifluoromethyl)benzamide]",activation of mouse splenocytes (murine IL-6) and human PBMCs (TNF),mouse splenocytes,activates both human PBMCs and mouse splenocytes
"Cc1ccc(-c2cn3cc(F)cnc3n2)cc1NC(=O)C(c1ccccc1)C(C)C (stereo not drawn) [FRF-03-082, N-(5-(6-Fluoroimidazo[1,2-a]pyrimidin-2-yl)-2-methylphenyl)-3-methyl-2-phenylbutanamide]",TNF (Median),"human adult PBMCs [4]; 33 μM, ELISA, median of N=3-5, no unit in table (FIGS. 6B/7B express TNF concentration in ng/ml)",1.008
same,Activity class,"human adult PBMCs [4]; classified according to TNF % vs R848, 33 μM",A (high activity—class A: TNF % >15%)
same,TNF % (Median),"human adult PBMCs [4]; median percentage TNF production as compared to R848, 33 μM",41.65%
